Source: PMC9234961 (Journal of Medicinal Chemistry, 2022)
Read-outs that look alike come from different tables or passages of the source.

Assays:
kinases (468) [1] = biological target: kinases (468) (Homo sapiens, UniProt Q9Y463); conditions: DYRK1B; 1000 nM
kinases (468) [2] = biological target: kinases (468) (Homo sapiens, UniProt Q96L34); conditions: MARK4; 1000 nM
kinases (468) [3] = biological target: kinases (468) (Homo sapiens, UniProt Q8TD19); conditions: NEK9; 1000 nM
kinases (468) [4] = biological target: kinases (468) (Homo sapiens, UniProt Q9UHD2); conditions: kinase TBK1 (Entrez TBK1); compound concentration 1000 nM
kinases (468) [5] = biological target: kinases (468) (Homo sapiens, UniProt P07948); conditions: LYN; 1000 nM
kinases (468) [6] = biological target: kinases (468) (Homo sapiens, UniProt Q14289); conditions: PYK2 (PTK2B); 1000 nM
kinases (468) [7] = biological target: kinases (468) (Homo sapiens, UniProt P57058); conditions: HUNK; 1000 nM
kinases (468) [8] = biological target: kinases (468) (Homo sapiens, UniProt O15197); conditions: EPHB6; 1000 nM
kinases (468) [9] = biological target: kinases (468) (Homo sapiens, UniProt O14578); conditions: CIT; 1000 nM
kinases (468) [10] = biological target: kinases (468) (Homo sapiens, UniProt Q8N568); conditions: DCAMKL2 (DCLK2); 1000 nM
kinases (468) [11] = biological target: kinases (468) (Homo sapiens, UniProt O14730); conditions: kinase RIOK3 (Entrez RIOK3); compound concentration 1000 nM
kinases (468) [12] = biological target: kinases (468) (Homo sapiens, UniProt P23443); conditions: kinase S6K1 (Entrez RPS6KB1); compound concentration 1000 nM
kinases (468) [13] = biological target: kinases (468) (Homo sapiens, UniProt P42680); conditions: kinase TEC (Entrez TEC); compound concentration 1000 nM
kinases (468) [14] = biological target: kinases (468) (Homo sapiens, UniProt Q6XUX3); conditions: kinase RIPK5 (Entrez DSTYK); compound concentration 1000 nM
kinases (468) [15] = biological target: kinases (468) (Homo sapiens, UniProt Q13554); conditions: CAMK2B; 1000 nM
kinases (468) [16] = biological target: kinases (468) (Homo sapiens, UniProt P46734); conditions: MEK3 (MAP2K3); 1000 nM
Sequence of kinases (468) (Homo sapiens, UniProt P46734) (P46734 whole entry): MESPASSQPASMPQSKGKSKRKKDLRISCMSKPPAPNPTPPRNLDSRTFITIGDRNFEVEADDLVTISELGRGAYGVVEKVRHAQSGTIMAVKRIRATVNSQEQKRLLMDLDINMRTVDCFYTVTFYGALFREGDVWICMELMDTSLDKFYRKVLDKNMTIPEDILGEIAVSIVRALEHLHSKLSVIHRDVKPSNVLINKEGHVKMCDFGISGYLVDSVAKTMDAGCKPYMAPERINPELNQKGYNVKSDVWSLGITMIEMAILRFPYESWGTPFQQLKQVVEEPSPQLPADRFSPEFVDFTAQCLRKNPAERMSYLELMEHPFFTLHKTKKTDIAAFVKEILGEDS

kinases (468) [17] = biological target: kinases (468) (Homo sapiens, UniProt P11802); conditions: 1000 nM
Sequence of kinases (468) (Homo sapiens, UniProt P11802) (P11802 whole entry): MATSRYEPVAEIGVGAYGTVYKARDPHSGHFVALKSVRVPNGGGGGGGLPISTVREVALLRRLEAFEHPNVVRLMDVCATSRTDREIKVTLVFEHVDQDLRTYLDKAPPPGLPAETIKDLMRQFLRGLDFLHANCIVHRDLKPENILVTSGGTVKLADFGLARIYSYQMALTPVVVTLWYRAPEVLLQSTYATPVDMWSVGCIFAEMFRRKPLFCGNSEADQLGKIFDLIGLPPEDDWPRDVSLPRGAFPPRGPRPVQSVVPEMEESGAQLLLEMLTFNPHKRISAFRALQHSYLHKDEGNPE

kinases (468) [18] = biological target: kinases (468) (Homo sapiens, UniProt O15530); conditions: PDPK1; 1000 nM
kinases (468) [19] = biological target: kinases (468) (Homo sapiens, UniProt P35968); conditions: kinase VEGFR2 (Entrez KDR); compound concentration 1000 nM
kinases (468) [20] = biological target: kinases (468) (Homo sapiens, UniProt Q9P0L2); conditions: MARK1; 1000 nM
Sequence of kinases (468) (Homo sapiens, UniProt Q9P0L2) (Q9P0L2 whole entry): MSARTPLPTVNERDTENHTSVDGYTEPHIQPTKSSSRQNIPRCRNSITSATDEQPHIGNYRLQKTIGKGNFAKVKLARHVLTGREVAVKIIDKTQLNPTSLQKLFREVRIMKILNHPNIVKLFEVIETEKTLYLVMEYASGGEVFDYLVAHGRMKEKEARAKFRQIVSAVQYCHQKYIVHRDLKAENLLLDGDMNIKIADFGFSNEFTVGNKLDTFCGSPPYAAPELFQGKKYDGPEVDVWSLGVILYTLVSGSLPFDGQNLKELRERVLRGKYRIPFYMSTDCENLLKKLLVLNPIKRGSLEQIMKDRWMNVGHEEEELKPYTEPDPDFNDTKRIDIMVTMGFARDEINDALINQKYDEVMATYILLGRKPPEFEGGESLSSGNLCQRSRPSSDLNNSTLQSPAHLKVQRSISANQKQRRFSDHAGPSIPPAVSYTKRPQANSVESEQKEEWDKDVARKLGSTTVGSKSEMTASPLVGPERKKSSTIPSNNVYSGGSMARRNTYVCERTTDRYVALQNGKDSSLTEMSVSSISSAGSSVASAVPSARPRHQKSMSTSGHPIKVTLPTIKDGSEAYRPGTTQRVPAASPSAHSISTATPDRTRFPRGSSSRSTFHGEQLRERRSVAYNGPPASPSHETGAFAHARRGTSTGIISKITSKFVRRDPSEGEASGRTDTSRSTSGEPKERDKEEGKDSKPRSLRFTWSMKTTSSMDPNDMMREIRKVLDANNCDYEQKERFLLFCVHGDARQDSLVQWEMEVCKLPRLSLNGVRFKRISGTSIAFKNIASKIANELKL

kinases (468) [21] = biological target: kinases (468) (Homo sapiens, UniProt P50750); conditions: CDK9; 1000 nM
kinases (468) [22] = biological target: kinases (468) (Homo sapiens, UniProt P06239); conditions: LCK; 1000 nM
Sequence of kinases (468) (Homo sapiens, UniProt P06239) (P06239 whole entry): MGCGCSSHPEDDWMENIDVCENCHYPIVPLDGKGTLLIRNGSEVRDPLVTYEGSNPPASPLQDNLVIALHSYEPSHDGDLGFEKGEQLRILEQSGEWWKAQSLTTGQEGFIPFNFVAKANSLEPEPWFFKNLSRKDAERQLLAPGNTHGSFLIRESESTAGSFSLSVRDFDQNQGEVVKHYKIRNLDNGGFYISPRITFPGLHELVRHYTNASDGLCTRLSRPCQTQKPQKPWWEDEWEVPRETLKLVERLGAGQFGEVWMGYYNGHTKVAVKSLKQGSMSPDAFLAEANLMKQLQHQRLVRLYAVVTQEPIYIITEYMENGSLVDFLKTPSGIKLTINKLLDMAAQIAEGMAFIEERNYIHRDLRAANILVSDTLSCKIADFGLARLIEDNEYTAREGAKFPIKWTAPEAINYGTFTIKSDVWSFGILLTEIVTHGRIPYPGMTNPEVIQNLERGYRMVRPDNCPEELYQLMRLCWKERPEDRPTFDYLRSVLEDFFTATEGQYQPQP

kinases (468) [23] = biological target: kinases (468) (Homo sapiens, UniProt P36897); conditions: kinase TGFBR1 (Entrez TGFBR1); compound concentration 1000 nM
kinases (468) [24] = biological target: kinases (468) (Homo sapiens, UniProt Q9Y6M4); conditions: CSNK1G3; 1000 nM
Sequence of kinases (468) (Homo sapiens, UniProt Q9Y6M4) (Q9Y6M4 whole entry): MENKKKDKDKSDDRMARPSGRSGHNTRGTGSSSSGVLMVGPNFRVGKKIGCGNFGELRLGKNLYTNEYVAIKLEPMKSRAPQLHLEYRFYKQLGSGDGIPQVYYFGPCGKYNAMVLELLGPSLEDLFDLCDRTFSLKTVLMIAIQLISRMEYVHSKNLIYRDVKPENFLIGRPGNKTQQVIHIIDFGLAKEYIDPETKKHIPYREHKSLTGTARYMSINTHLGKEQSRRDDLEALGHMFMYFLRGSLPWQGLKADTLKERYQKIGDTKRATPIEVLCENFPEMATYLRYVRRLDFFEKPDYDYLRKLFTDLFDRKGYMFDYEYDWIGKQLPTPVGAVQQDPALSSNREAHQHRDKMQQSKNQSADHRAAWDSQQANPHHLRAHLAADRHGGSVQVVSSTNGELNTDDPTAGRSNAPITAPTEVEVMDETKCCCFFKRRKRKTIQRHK

kinases (468) [25] = biological target: kinases (468) (Homo sapiens, UniProt P51955); conditions: NEK2; 1000 nM
kinases (468) [26] = biological target: kinases (468) (Homo sapiens, UniProt P08069); conditions: IGF1R; 1000 nM
kinases (468) [27] = biological target: kinases (468) (Homo sapiens, UniProt O15146); conditions: MUSK; 1000 nM
Sequence of kinases (468) (Homo sapiens, UniProt O15146) (O15146 24-869): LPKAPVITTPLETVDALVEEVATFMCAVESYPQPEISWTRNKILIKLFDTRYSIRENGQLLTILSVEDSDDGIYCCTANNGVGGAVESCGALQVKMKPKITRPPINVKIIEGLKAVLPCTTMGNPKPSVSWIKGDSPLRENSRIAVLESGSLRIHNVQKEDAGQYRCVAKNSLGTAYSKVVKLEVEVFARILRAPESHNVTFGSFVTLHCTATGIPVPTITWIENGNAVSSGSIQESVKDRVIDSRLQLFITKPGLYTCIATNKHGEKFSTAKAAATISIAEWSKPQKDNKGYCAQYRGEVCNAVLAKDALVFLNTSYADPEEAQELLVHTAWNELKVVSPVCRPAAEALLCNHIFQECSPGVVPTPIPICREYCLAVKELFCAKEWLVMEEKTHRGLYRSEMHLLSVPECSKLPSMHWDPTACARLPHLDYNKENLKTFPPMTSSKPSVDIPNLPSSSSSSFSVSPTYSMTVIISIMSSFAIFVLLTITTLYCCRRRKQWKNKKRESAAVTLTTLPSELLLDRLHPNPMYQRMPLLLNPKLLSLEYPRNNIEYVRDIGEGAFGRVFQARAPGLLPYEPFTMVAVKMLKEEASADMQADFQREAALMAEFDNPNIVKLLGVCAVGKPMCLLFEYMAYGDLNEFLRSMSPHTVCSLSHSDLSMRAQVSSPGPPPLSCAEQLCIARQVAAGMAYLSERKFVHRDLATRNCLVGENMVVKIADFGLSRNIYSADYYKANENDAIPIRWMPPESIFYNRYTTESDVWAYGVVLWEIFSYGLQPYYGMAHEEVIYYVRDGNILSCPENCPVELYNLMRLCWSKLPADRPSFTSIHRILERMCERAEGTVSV

kinases (468) [28] = biological target: kinases (468) (Homo sapiens, UniProt P29376); conditions: LTK; 1000 nM
kinases (468) [29] = biological target: kinases (468) (Homo sapiens, UniProt Q8WXR4); conditions: MYO3B; 1000 nM
kinases (468) [30] = biological target: kinases (468) (Homo sapiens, UniProt Q6ZWH5); conditions: NEK10; 1000 nM
kinases (468) [31] = biological target: kinases (468) (Homo sapiens, UniProt Q9HBY8); conditions: kinase SGK2 (Entrez SGK2); compound concentration 1000 nM
kinases (468) [32] = biological target: kinases (468) (Homo sapiens, UniProt P43405); conditions: kinase SYK (Entrez SYK); compound concentration 1000 nM
kinases (468) [33] = biological target: kinases (468) (Homo sapiens, UniProt P30291); conditions: kinase WEE1 (Entrez WEE1); compound concentration 1000 nM
kinases (468) [34] = biological target: kinases (468) (Homo sapiens, UniProt P53778); conditions: p38-gamma (MAPK12); 1000 nM
Sequence of kinases (468) (Homo sapiens, UniProt P53778) (P53778 whole entry): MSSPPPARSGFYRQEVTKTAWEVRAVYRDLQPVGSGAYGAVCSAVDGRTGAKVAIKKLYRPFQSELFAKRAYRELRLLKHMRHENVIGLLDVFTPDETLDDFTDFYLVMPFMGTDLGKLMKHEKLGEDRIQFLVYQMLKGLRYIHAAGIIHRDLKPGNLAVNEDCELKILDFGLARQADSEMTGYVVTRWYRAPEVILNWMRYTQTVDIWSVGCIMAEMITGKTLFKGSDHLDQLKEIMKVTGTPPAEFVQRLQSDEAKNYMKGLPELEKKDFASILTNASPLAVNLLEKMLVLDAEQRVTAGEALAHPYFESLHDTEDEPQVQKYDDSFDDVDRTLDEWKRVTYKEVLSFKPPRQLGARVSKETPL

Sequence of kinases (468) (Homo sapiens, UniProt Q96L34) (Q96L34 whole entry): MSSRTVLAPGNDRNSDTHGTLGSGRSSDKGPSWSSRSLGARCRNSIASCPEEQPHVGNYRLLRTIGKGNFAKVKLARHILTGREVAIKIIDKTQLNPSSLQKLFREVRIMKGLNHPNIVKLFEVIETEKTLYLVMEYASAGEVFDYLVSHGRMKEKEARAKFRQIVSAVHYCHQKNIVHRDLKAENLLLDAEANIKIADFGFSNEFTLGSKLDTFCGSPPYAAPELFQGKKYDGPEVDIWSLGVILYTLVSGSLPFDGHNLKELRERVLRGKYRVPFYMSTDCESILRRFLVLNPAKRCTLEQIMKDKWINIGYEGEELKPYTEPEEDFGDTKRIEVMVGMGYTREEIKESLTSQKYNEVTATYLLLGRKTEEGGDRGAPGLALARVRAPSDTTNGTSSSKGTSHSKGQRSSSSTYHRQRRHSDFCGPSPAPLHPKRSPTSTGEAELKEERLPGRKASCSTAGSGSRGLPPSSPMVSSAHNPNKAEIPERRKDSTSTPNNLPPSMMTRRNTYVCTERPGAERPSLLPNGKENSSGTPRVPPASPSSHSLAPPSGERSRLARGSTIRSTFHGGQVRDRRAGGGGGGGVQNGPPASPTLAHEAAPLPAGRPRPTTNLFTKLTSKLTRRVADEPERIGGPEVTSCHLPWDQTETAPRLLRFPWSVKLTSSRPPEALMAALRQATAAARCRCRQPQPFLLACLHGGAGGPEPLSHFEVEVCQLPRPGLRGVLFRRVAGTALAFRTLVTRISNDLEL
Sequence of kinases (468) (Homo sapiens, UniProt Q9Y463) (Q9Y463 whole entry): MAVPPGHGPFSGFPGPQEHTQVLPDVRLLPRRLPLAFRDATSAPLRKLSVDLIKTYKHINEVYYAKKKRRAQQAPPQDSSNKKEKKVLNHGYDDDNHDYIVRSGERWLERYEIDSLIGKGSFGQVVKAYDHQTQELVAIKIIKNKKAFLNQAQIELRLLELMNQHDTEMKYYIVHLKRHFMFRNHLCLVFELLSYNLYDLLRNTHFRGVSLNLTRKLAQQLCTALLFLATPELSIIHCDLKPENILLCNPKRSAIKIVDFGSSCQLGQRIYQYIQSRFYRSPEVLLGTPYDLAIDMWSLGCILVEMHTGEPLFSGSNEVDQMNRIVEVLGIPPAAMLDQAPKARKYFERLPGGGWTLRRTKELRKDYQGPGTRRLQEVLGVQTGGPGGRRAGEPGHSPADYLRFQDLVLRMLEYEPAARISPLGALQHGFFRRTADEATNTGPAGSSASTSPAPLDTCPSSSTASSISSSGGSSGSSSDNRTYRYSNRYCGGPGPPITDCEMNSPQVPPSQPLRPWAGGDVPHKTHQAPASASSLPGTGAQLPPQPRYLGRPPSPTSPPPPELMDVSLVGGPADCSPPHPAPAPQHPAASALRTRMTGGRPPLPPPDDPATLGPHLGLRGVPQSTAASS

C[C@H]1C[C@@H](O)CN(c2ncc(Cl)c(Nc3ccc4c(c3)c3c(c(=O)n4C)OCC(F)(F)[C@H](C4CC4)N3)n2)C1 [CCT373566_9A]
Percent Control (kinases (468) [1]): 87% | Percent Control (kinases (468) [2]): 100% | Percent Control (kinases (468) [3]): 95% | Percent Control (kinases (468) [4]): 100% | Percent Control (kinases (468) [5]): 88% | Percent Control (kinases (468) [6]): 98% | Percent Control (kinases (468) [7]): 100% | Percent Control (kinases (468) [8]): 93% | Percent Control (kinases (468) [9]): 99% | Percent Control (kinases (468) [10]): 100% | Percent Control (kinases (468) [11]): 85% | Percent Control (kinases (468) [12]): 85% | Percent Control (kinases (468) [13]): 94% | Percent Control (kinases (468) [14]): 90% | Percent Control (kinases (468) [15]): 76% | Percent Control (kinases (468) [16]): 100% | Percent Control (kinases (468) [17]; CDK4-cyclinD1): 94% | Percent Control (kinases (468) [17]; CDK4-cyclinD3): 95% | Percent Control (kinases (468) [17]; CDK4): 100% | Percent Control (kinases (468) [18]): 100% | Percent Control (kinases (468) [19]): 95% | Percent Control (kinases (468) [20]): 100% | Percent Control (kinases (468) [21]): 96% | Percent Control (kinases (468) [22]): 100% | Percent Control (kinases (468) [23]): 89% | Percent Control (kinases (468) [24]): 100% | Percent Control (kinases (468) [25]): 92% | Percent Control (kinases (468) [26]): 100% | Percent Control (kinases (468) [27]): 100% | Percent Control (kinases (468) [28]): 100% | Percent Control (kinases (468) [29]): 100% | Percent Control (kinases (468) [30]): 99% | Percent Control (kinases (468) [31]): 86% | Percent Control (kinases (468) [32]): 98% | Percent Control (kinases (468) [33]): 89% | Percent Control (kinases (468) [34]): 92%
